Columns and labels:
[1] = Pharmacokinetic analysis in ICR mice; type: in vivo; details: mouse, 50 mg/kg P.O.
Method: Male ICR mice (weighing 30-40 g, Charles River Laboratories) were used for the experiment with n=3 mice for each experimental group (27 mice total for the study). […] Blood and liver tissue were collected at the following time points after administration: 15, 30, 60, 90 minutes, 3, 6, 12 and 24 hours. A control group of animals (TO) was also sampled. Animals were euthanized with C02 and the blood collected from the heart using cardiac puncture, transferred to an EDTA tube, and then centrifuged at 5400 rpm for 5 minutes at 4° C. The resultant plasma was frozen using dry ice and then stored at −80° C. until ready for assay. Liver tissue was removed from each animal, 0.5 g was collected in an eppendorff, frozen and submitted for pharmacokinetic measurement. […] Raw data was analyzed using WinNonLin for PK parameters (Cmax, Tmax, elimination t^1/2, MRT (mean residence time), AUC (area under the curve)−(0-last and % extrapolated).

[2] = system: db/db mouse model of type II diabetes; experiment: Increasing dosages of Compound 72 over 7 days in db/db mice; type: in vivo
Excerpt: (§1) Significance was accepted when p<0.05.

[3] = target: isolated FAD-binding domain of human CRY1 protein (hCRY1) (Homo sapiens (Human), UniProt Q16526); experiment: Thermal shift binding assay (differential scanning fluorimetry)
isolated FAD-binding domain of human CRY1 protein (hCRY1), sequence (Q16526 1-494): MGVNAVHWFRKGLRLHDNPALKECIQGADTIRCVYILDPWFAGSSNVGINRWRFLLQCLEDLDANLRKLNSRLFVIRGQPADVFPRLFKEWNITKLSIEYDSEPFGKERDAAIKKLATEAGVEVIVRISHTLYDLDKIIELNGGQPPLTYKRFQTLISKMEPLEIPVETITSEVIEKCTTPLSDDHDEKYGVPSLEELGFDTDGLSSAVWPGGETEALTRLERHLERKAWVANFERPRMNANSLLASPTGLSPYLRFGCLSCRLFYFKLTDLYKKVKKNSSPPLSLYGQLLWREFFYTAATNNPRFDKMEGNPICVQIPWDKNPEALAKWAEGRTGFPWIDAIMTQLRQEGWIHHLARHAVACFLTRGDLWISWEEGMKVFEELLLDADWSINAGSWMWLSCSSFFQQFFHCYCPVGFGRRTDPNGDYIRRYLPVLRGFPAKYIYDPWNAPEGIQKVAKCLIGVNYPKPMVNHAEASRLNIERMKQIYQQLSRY
Method: Binding of compounds to the isolated FAD-binding domain of human CRY1 protein (hCRY1) was determined using a differential scanning fluorimetry (‘thermal shift’) assay (Pantoliano et al. (2001) J Biomol Screening 6, 429; Niesen et al. (2007) Nature Protocols 2, 2212). The FAD-binding domain of hCRY1 (amino acid residues 1-494) with a C-terminal Myc-DDK tag (FADBD), was produced by transient transfection of HEK293T cells (Catalog # CRL-3216, American Type Culture Collection) and purified by anti-FLAG affinity chromatography (Catalog # A2220, Sigma-Aldrich). FADBD (0.5 μg per well) was incubated with dilutions of compounds in DMSO (5% DMSO final concentration in reaction) in 17.5 μl Tris-buffered saline (TBS) for 10 minutes on ice, then 2.5 μl of 8× Sypro-Orange Dye (Life Technologies) was added to each well. Triplicate wells were assayed for each compound concentration. The melting temperatures were measured in an ABI7500 quantitative PCR instrument using the melt curve mode with a thermal profile of 2 minutes at 25° C., followed by a ramp rate of 1° C./minute up to 99° C. The melting temperature for each well was determined from the first derivative of the melt curve. The change in melting temperature (ΔTm) was obtained by subtraction of the melting temperature of the FADBD in 5% DMSO alone.

C57/Bl6J DIO mice = experiment: Increasing dosages of Compound 72 in diet-induced obesity (DIO) mouse model; type: in vivo; details: 10, 30, 100 mg/kg PO QD 7 days
Excerpt: Male C57/Bl6J DIO mice were obtained from The Jackson Laboratory (Sacramento, Calif.). […] Animals were accustomed to these conditions for at least 2 weeks before experimentation and used at approximately 24 weeks of age.
as §1
Male C57/Bl6J DIO mice were obtained from The Jackson Laboratory (Sacramento, Calif.). […] Animals were accustomed to these conditions for at least 2 weeks before experimentation and used at approximately 26 weeks of age.

[4] = system: db/db mouse model of type II diabetes; experiment: Single dose at peak or nadir of clock gene expression, OGTT in db/db mice; type: in vivo
Excerpt: Mice were split into two study arms, to be dosed at either the peak or nadir of Cry1 and Bmal1 gene expression. […] Mice dosed at ZT10 were fasted beginning at 8:30 am in the same manner.
as §1

% AUC extrapolated ([1]; liver): 0.85%
Tmax (hr) ([1]; liver): 0.25 − hr
Tmax (hr) ([1]; plasma): 0.25 − hr
change in melting temperature (ΔTm) of hCRY1 FADBD [3]: dose-dependent increase
Structure (SMILES): O=C1NCCN1CC(O)Cn1c2ccc(F)cc2c2cc(F)ccc21 (stereo not shown) [Compound 72, 1-(3-(3,6-difluoro-9H-carbazol-9-yl)-2-hydroxypropyl)imidazolidin-2-one]
reduction of HOMA-IR compared to vehicle ([2]; 100 mg/kg PO QD 7 days): 34%
OGTT glucose excursion ([2]; 10, 50, 100 mg/kg PO QD 7 days): dose dependent effect on glucose excursion
OGTT glucose excursion following a glucose load (C57/Bl6J DIO mice): reduction in glucose excursion
effect on OGTT measurement, dosed at peak ([4]; 50 mg/kg PO single dose at ZT0, db/db mice): apparent effect
effect on OGTT measurement, dosed at nadir ([4]; 50 mg/kg PO single dose at ZT10, db/db mice): no effect
reduction in glucose excursion (AUC) ([4]; 50 mg/kg PO single dose at peak (ZT0), vs vehicle): 14%

Source: US10759777B2, “Carbazole-containing amides, carbamates, and ureas as cryptochrome modulators” (Synchronicity Pharma, Inc., priority 2014, dated 2020)
